Here are results for 32 compounds from patent publication US10092575B2, “Substituted thiophene- and furan-fused azolopyrimidine-5-(6H)-one compounds” (DART NEUROSCIENCE (CAYMAN) LTD., priority 2012, dated 2018).

pEC50: −log10 of the molar value. Where only a bound is given, the exact number is not on record here.

For one assay, the target named is human PDE1b enzyme (Homo sapiens (Human), UniProt Q01064). As to the kind of experiment: PDE1b inhibitory assay (IMAP TR-FRET).
Conditions: not given
In general terms: Time-resolved FRET reads energy transfer from a long-lived donor to a nearby acceptor.
A word on the pEC50: it is −log10 of the EC50, conventionally taken in molar units. A lower pEC50 goes with a large EC50. `COc1ccc(Cn2c(=O)n3ncnc3c3c(C)c(CN4C[C@@H](C)N[C@@H](C)C4)sc32)cc1` [Example 72, 8-(((3R,5S)-3,5-Dimethylpiperazin-1-yl)methyl)-6-(4-methoxybenzyl)-9-methylthieno[3,2-e][1,2,4]triazolo[1,5-c]pyrimidin-5(6H)-one] showed a pEC50 of 6.00 to 7.00.

With `COc1ccc(Cn2c(=O)n3ncnc3c3c(C)c(Br)sc32)cc1` [Example 76, 8-Bromo-6-(4-methoxybenzyl)-9-methylthieno[3,2-e][1,2,4]triazolo[1,5-c]pyrimidin-5(6H)-one], the pEC50 was 6.00 to 7.00.

For the compound `COc1ccc(Cn2c(=O)n3ncnc3c3c(C)c(CO)sc32)cc1` [Example 77, 8-(Hydroxymethyl)-6-(4-methoxybenzyl)-9-methylthieno[3,2-e][1,2,4]triazolo[1,5-c]pyrimidin-5(6H)-one], the pEC50 was 6.00 to 7.00.

Compound `COc1ccc(Cn2c(=O)n3ncnc3c3c(CN4C[C@@H](C)O[C@@H](C)C4)csc32)cc1` [Example 78, 9-(((2S,6R)-2,6-Dimethylmorpholino)methyl)-6-(4-methoxybenzyl)thieno[3,2-e][1,2,4]triazolo[1,5-c]pyrimidin-5(6H)-one] gave a negative-log EC50 (pEC50) of 6.00 to 7.00.

Consider `Cc1oc2c(c1C)c1ncnn1c(=O)n2Cc1ccc(Cl)cc1` [Example 79, 6-(4-Chlorobenzyl)-8,9-dimethylfuro[3,2-e][1,2,4]triazolo[1,5-c]pyrimidin-5(6H)-one], for which the pEC50 was 6.00 to 7.00.

For `O=c1n(Cc2ccccc2Cl)c2sc3c(c2c2ncnn12)CCCC3` [Example 81, 6-(2-Chlorobenzyl)-8,9,10,11-tetrahydrobenzo[4,5]thieno[3,2-e][1,2,4]triazolo[1,5-c]pyrimidin-5(6H)-one], the pEC50 was 5.00 to 6.00.

In turn, `COc1ccc(Cn2c(=O)n3nccc3c3cc(CN4CCOCC4)sc32)cc1` [Example 82, 4-(4-Methoxybenzyl)-2-(morpholinomethyl)pyrazolo[1,5-c]thieno[3,2-e]pyrimidin-5(4H)-one] gave a negative logarithm of the EC50 (pEC50) of 6.00 to 7.00.

Compound `CC1(C)Cc2c(sc3c2c2ncnn2c(=O)n3Cc2ccc(Cl)cc2)CO1` [Example 83, 6-(4-Chlorobenzyl)-10,10-dimethyl-6,8,10,11-tetrahydro-5H-pyrano[4′,3′:4,5]thieno[3,2-e][1,2,4]triazolo[1,5-c]pyrimidin-5-one] had a pEC50 of 6.00 to 7.00.

Regarding `O=c1n(Cc2ccccc2)c2sc3c(c2c2ncnn12)CCCC3` [Example 84, 6-Benzyl-8,9,10,11-tetrahydrobenzo[4,5]thieno[3,2-e][1,2,4]triazolo[1,5-c]pyrimidin-5(6H)-one], the pEC50 was 6.00 to 7.00.

Compound `O=c1n(Cc2cccc(Cl)c2)c2sc3c(c2c2ncnn12)CCCC3` [Example 85, 6-(3-Chlorobenzyl)-8,9,10,11-tetrahydrobenzo[4,5]thieno[3,2-e][1,2,4]triazolo[1,5-c]pyrimidin-5(6H)-one] had a pEC50 of 6.00 to 7.00.

Compound `O=c1n(Cc2ccc(-c3ccccc3)cc2)c2sc3c(c2c2ncnn12)CCCC3` [Example 86, 6-([1,1′-Biphenyl]-4-ylmethyl)-8,9,10,11-tetrahydrobenzo[4,5]thieno[3,2-e][1,2,4]triazolo[1,5-c]pyrimidin-5(6H)-one] gave a negative logarithm of the EC50 (pEC50) of 5.00 to 6.00.

Staying with this assay, now noted: negative log of half-maximal molar inhibitory concentration; 200 nM FAM-cAMP; reported as ranges.
With `COc1ccc(Cn2c(=O)n3ncnc3c3c(C)c(CN4CCNC(=O)C4)sc32)cc1` [Example 53, 6-(4-Methoxybenzyl)-9-methyl-8-((3-oxopiperazin-1-yl)methyl)thieno[3,2-e][1,2,4]triazolo[1,5-c]pyrimidin-5(6H)-one], the “PDE1b (pEC50)” value is listed as above 7.

As to `COc1ccc(Cn2c(=O)n3ncnc3c3c(C)c(CN(C)CC4CCCO4)sc32)cc1` (centres unmarked) [Example 54, 6-(4-Methoxybenzyl)-9-methyl-8-((methyl((tetrahydrofuran-2-yl)methyl)amino)methyl)thieno[3,2-e][1,2,4]triazolo[1,5-c]pyrimidin-5(6H)-one], the “PDE1b (pEC50)” value is given as above 7.

For the compound `COc1ccc(Cn2c(=O)n3ncnc3c3c(C)c(CN4C[C@@H](C)O[C@@H](C)C4)sc32)cc1` [Example 55, 8-(((2S,6R)-2,6-Dimethylmorpholino)methyl)-6-(4-methoxybenzyl)-9-methylthieno[3,2-e][1,2,4]triazolo[1,5-c]pyrimidin-5(6H)-one], the “PDE1b (pEC50)” value is given as above 7.

With `COc1ccc(Cn2c(=O)n3ncnc3c3c(C)c(CN4Cc5ccccc5C4)sc32)cc1` [Example 56, 8-(Isoindolin-2-ylmethyl)-6-(4-methoxybenzyl)-9-methylthieno[3,2-e][1,2,4]triazolo[1,5-c]pyrimidin-5(6H)-one], the “PDE1b (pEC50)” value was above 7.

Regarding `COc1ccc(Cn2c(=O)n3ncnc3c3c(C)c(CNC4CC4)sc32)cc1` [Example 57, 8-((Cyclopropylamino)methyl)-6-(4-methoxybenzyl)-9-methylthieno[3,2-e][1,2,4]triazolo[1,5-c]pyrimidin-5(6H)-one], the “PDE1b (pEC50)” value is recorded as above 7.

For the compound `COC[C@@H]1CCCN1Cc1sc2c(c1C)c1ncnn1c(=O)n2Cc1ccc(OC)cc1` [Example 58, (S)-6-(4-Methoxybenzyl)-8-((2-(methoxymethyl)pyrrolidin-1-yl)methyl)-9-methylthieno[3,2-e][1,2,4]triazolo[1,5-c]pyrimidin-5(6H)-one], the “PDE1b (pEC50)” value was above 7.

Consider `COc1ccc(Cn2c(=O)n3ncnc3c3c(C)c(CN(C)CC4CCOC4)sc32)cc1` (centres unmarked) [Example 59, 6-(4-Methoxybenzyl)-9-methyl-8-((methyl((tetrahydrofuran-3-yl)methyl)amino)methyl)thieno[3,2-e][1,2,4]triazolo[1,5-c]pyrimidin-5(6H)-one], for which the “PDE1b (pEC50)” value is given as above 7.

On to `COc1ccc(Cn2c(=O)n3ncnc3c3c(C)c(CN4CCCOCC4)sc32)cc1` [Example 61, 8-((1,4-Oxazepan-4-yl)methyl)-6-(4-methoxybenzyl)-9-methylthieno[3,2-e][1,2,4]triazolo[1,5-c]pyrimidin-5(6H)-one], for which the “PDE1b (pEC50)” value is listed as above 7.

As to `COc1ccc(Cn2c(=O)n3ncnc3c3c(C)c(CN4CCN(S(C)(=O)=O)CC4)sc32)cc1` [Example 63, 6-(4-Methoxybenzyl)-9-methyl-8-((4-(methylsulfonyl)piperazin-1-yl)methyl)thieno[3,2-e][1,2,4]triazolo[1,5-c]pyrimidin-5(6H)-one], the “PDE1b (pEC50)” value is on record as above 7.

`COc1ccc(Cn2c(=O)n3ncnc3c3c(C)c(CN4CCN(C(C)C)CC4)sc32)cc1` [Example 64, 8-((4-Isopropylpiperazin-1-yl)methyl)-6-(4-methoxybenzyl)-9-methylthieno[3,2-e][1,2,4]triazolo[1,5-c]pyrimidin-5(6H)-one]: the “PDE1b (pEC50)” value was above 7.

As for `COc1ccc(Cn2c(=O)n3ncnc3c3c(C)c(CN4CC5CC4CO5)sc32)cc1` (centres unmarked) [Example 65, 8-(2-Oxa-5-azabicyclo[2.2.1]heptan-5-ylmethyl)-6-(4-methoxybenzyl)-9-methylthieno[3,2-e][1,2,4]triazolo[1,5-c]pyrimidin-5(6H)-one], the “PDE1b (pEC50)” value is above 7.

Take `CCN1CCN(Cc2sc3c(c2C)c2ncnn2c(=O)n3Cc2ccc(OC)cc2)CC1=O` [Example 66, 8-((4-Ethyl-3-oxopiperazin-1-yl)methyl)-6-(4-methoxybenzyl)-9-methylthieno[3,2-e][1,2,4]triazolo[1,5-c]pyrimidin-5(6H)-one]: the “PDE1b (pEC50)” value was above 7.

For the compound `COc1ccc(Cn2c(=O)n3ncnc3c3c(C)c(CN4CC5CCC(C4)O5)sc32)cc1` [Example 67, 8-(8-Oxa-3-azabicyclo[3.2.1]octan-3-ylmethyl)-6-(4-methoxybenzyl)-9-methylthieno[3,2-e][1,2,4]triazolo[1,5-c]pyrimidin-5(6H)-one], the “PDE1b (pEC50)” value is above 7.

Regarding `CCC1CN(Cc2sc3c(c2C)c2ncnn2c(=O)n3Cc2ccc(OC)cc2)CCO1` (centres unmarked) [Example 68, 8-((2-Ethylmorpholino)methyl)-6-(4-methoxybenzyl)-9-methylthieno[3,2-e][1,2,4]triazolo[1,5-c]pyrimidin-5(6H)-one], the “PDE1b (pEC50)” value is above 7.

Take `COc1ccc(Cn2c(=O)n3ncnc3c3c(C)c(CN4CCOC(C)(C)C4)sc32)cc1` [Example 69, 8-((2,2-Dimethylmorpholino)methyl)-6-(4-methoxybenzyl)-9-methylthieno[3,2-e][1,2,4]triazolo[1,5-c]pyrimidin-5(6H)-one]: the “PDE1b (pEC50)” value was above 7.

Turning to `COc1ccc(Cn2c(=O)n3ncnc3c3c(C)c(CN4CCOC(C)C4)sc32)cc1` (centres unmarked) [Example 70, 6-(4-Methoxybenzyl)-9-methyl-8-((2-methylmorpholino)methyl)thieno[3,2-e][1,2,4]triazolo[1,5-c]pyrimidin-5(6H)-one], the “PDE1b (pEC50)” value was above 7.

For the compound `COc1ccc(Cn2c(=O)n3ncnc3c3c(C)c(CN4CCOCC4C)sc32)cc1` (centres unmarked) [Example 71, 6-(4-Methoxybenzyl)-9-methyl-8-((3-methylmorpholino)methyl)thieno[3,2-e][1,2,4]triazolo[1,5-c]pyrimidin-5(6H)-one], the “PDE1b (pEC50)” value is listed as above 7.

Consider `COc1ccc(Cn2c(=O)n3ncnc3c3c(C)c(CN4CCN(C)C(C)C4)sc32)cc1` (centres unmarked) [Example 73, 8-((3,4-Dimethylpiperazin-1-yl)methyl)-6-(4-methoxybenzyl)-9-methylthieno[3,2-e][1,2,4]triazolo[1,5-c]pyrimidin-5(6H)-one], for which the “PDE1b (pEC50)” value is on record as above 7.

Regarding `COc1ccc(Cn2c(=O)n3ncnc3c3c(C)c(CN4CCN(C)C(C)(C)C4)sc32)cc1` [Example 74, 6-(4-Methoxybenzyl)-9-methyl-8-((3,3,4-trimethylpiperazin-1-yl)methyl)thieno[3,2-e][1,2,4]triazolo[1,5-c]pyrimidin-5(6H)-one], the “PDE1b (pEC50)” value was above 7.

With `COc1ccc(Cn2c(=O)n3ncnc3c3c(C)c(CN4CCN5CCC[C@H]5C4)sc32)cc1` [Example 75, (S)-8-((Hexahydropyrrolo[1,2-a]pyrazin-2(1H)-yl)methyl)-6-(4-methoxybenzyl)-9-methylthieno[3,2-e][1,2,4]triazolo[1,5-c]pyrimidin-5(6H)-one], the “PDE1b (pEC50)” value is listed as above 7.

As for `COc1ccc(Cn2c(=O)n3ncnc3c3c4c(sc32)CN(C(=O)OC(C)(C)C)CC4)cc1` [Example 80, tert-Butyl 6-(4-methoxybenzyl)-5-oxo-5,6,10,11-tetrahydropyrido[4′,3′:4,5]thieno[3,2-e][1,2,4]triazolo[1,5-c]pyrimidine-9(8H)-carboxylate], the “PDE1b (pEC50)” value is recorded as above 7.
